How the values were obtained:
[1] = biological target: T1, Rpn11 (Homo sapiens (Human), UniProt O00487); experiment: Rpn11 activity assay (fluorescence polarization, Ub4-pepOG cleavage by 26S proteasome); format: biochemical; conditions: does not inhibit Csn5 or AMSH with the same potency as Rpn11
[2] = biological target: AMSH (Homo sapiens (Human), UniProt O95630); experiment: AMSH activity assay (DiUb^K63TAMRA cleavage, fluorescence); format: biochemical; conditions: Table 2
Source text: AMSH Activity Assay. AMSH is known to selectively cleave ubiquitin chains in which the ubiquitins are joined via K63 of the proximal ubiquitin linked by an isopeptide bond to the carboxy terminus of the distal ubiquitin. […] In brief, DiUb^K63TAMRA was labeled with quench pairs TAMRA/QXL.

[3] = tested on: Ub^G76V-GFP; experiment: Reporter degradation assay in Hela cells expressing Ub^G76V-GFP; format: cell-based; conditions: after MG132 removal, cycloheximide chase
Procedure: Characterization of the Compound Activity in Cells. […] After 4 hours, MG132 was removed and a cycloheximide (CHX) chase was initiated +/− different concentrations of test compound and the rate of reporter degradation was evaluated by monitoring GFP fluorescence by high throughput microscopy. The rate of fluorescence decrease was normalized to DMSO control and analyzed using does-response equation.

[4] = biological target: Csn5 (Homo sapiens (Human), UniProt Q92905); experiment: Csn5 activity assay (fluorescence polarization, SCF^skp2-Nedd8OG, COP9 Signalosome Complex); format: biochemical; conditions: Table 2
Procedure: Csn5 Activity Assay. […] In brief, a fluorescent substrate termed SCF^skp2-Nedd8OG was produced to measure CSN5 activity in vitro. This assay measures the decrease in fluorescence polarization due to the decrease in apparent molecular weight of Oregon Green (OG) fluorophore (from the ˜175 kDa substrate to ˜9 kDa Nedd8OG) as a result of Csn5-mediated cleavage of the isopeptide bond that links Nedd8OG to SCF^Skp2. The assay was performed in a low-volume 384 well solid black plate comprising equal volumes of compound, substrate (SCF^skp2-Need8OG) and enzyme (purified COP9 Signalosome Complex, CSN). Fluorescence polarization was recorded using the same setting as for the Rpn11 activity assay.

[5] = biological target: T1, Rpn11; experiment: Rpn11 activity assay (fluorescence polarization, Ub4-pepOG cleavage by 26S proteasome); format: biochemical; conditions: Table 2; 1 mM DTT in assay reduces disulfides to monomeric active species
Source text: Candidate compounds according to embodiments of the present invention were synthesized as described herein. […] In brief, this Rpn11 bioassay employs a fluorescent polarization readout based on the ability of the 26S proteasome to cleave the protein substrate including four tandem ubiquitin proteins fused to a peptide having a unique cysteine labeled with a fluorophore. Cleavage of this substrate by Rpn11 at the junction between the fourth ubiquitin and the peptide, releases the low molecular weight fluorescent peptide. Accordingly, inhibition of fluorescence correlates with inhibition of Rpn11. Inhibition is reported as the half maximal inhibitory concentration (IC50) for the candidate compound.
Rpn11 Activity Assay. […] In brief, in order to measure the Rpn11 activity, a synthetic peptide substrate, termed Ub4-pepOG, was engineered. […] Peptide substrate Ub4-pepOG consists of only 30 amino acids and therefore the decrease of polarization is mainly from deubiquitination but not the proteolysis of the peptide. Fluorescence polarization assay was performed in a low-volume 384 well solid black plate where the components are added in the follow sequence: 1) 5 μl compound in 3% DMSO or 3% DMSO control 2) 5 μl 26S proteasome (Enzo Life Sciences Inc, NY). […] Fluorescence polarization is measured using a PHERAstar (BMG labtech, Ortenberg, Germany) plate reader with excitation of 480 nm and emission of 520 nm filter set. […] Rpn11 activity was normalized to DMSO control and fitted using does-response curve.

AMSH, sequence (O95630 whole entry): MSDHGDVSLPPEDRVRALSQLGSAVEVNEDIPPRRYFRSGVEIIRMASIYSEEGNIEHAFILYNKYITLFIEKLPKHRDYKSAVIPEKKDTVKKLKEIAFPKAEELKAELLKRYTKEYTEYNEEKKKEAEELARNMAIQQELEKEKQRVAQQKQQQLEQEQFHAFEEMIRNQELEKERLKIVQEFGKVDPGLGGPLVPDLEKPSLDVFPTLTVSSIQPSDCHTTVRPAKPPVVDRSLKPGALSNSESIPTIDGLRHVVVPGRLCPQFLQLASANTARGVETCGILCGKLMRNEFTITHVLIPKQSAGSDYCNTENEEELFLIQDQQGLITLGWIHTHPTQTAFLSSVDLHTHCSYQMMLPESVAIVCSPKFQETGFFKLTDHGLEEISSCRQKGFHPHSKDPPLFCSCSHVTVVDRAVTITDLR
T1 sequence (O00487 whole entry, looked up): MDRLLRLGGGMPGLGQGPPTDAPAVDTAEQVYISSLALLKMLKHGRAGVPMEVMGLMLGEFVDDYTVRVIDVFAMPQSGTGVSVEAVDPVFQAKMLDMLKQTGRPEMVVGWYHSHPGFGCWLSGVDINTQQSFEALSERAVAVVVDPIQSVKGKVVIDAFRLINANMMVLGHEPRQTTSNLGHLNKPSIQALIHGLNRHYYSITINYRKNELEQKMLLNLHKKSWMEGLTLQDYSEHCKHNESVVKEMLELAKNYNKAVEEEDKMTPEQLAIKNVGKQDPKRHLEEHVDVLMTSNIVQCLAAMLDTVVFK

Structure (SMILES): O=C(NCc1ccncc1)c1cnc2c(SSc3cccc4cc(C(=O)NCc5ccncc5)cnc34)cccc2c1 [Compound 15, 8,8′-Disulfanediylbis(N-(pyridin-4-ylmethyl)quinoline-3-carboxamide)]
- specificity for Rpn11 versus Csn5 and/or AMSH (in words) [1]: specific inhibitors of Rpn11
- IC50 [2]: 0.5 µM
- IC50 [3]: > 10 µM
- IC50 [4]: 7 µM
- IC50 [5]: 0.2 µM

Structure (SMILES): O=C(NCc1ccc(C(F)(F)F)cc1)c1cnc2c(SSc3cccc4cc(C(=O)NCc5ccc(C(F)(F)F)cc5)cnc34)cccc2c1 [Compound 18, 8,8′-Disulfanediylbis(N-(4-(trifluoromethyl)benzyl)quinoline-3-carboxamide)]
- specificity for Rpn11 versus Csn5 and/or AMSH (in words) [1]: specific inhibitors of Rpn11
- IC50 [2]: 3.4 µM
- IC50 [3]: > 10 µM
- IC50 [4]: > 100 µM
- IC50 [5]: 0.7 µM

Structure (SMILES): O=C(NCCc1cccs1)c1ccnc2c(SSc3cccc4c(C(=O)NCCc5cccs5)ccnc34)cccc12 [Compound 24, 8,8′-disulfanediylbis(N-(2-(thiophen-2-yl)ethyl)quinoline-4-carboxamide)]
- specificity for Rpn11 versus Csn5 and/or AMSH (in words) [1]: specific inhibitors of Rpn11
- IC50 [2]: 1 µM
- IC50 [3]: 1.1 µM
- IC50 [4]: 7.3 µM
- IC50 [5]: 0.7 µM

Structure (SMILES): O=C(NCCc1ccco1)c1ccnc2c(SSc3cccc4c(C(=O)NCCc5ccco5)ccnc34)cccc12 [Compound 26, 8,8′-disulfanediylbis(N-(2-(furan-2-yl)ethyl)quinoline-4-carboxamide)]
- specificity for Rpn11 versus Csn5 and/or AMSH (in words) [1]: specific inhibitors of Rpn11
- IC50 [2]: 2.9 µM
- IC50 ([3]; Homo sapiens): 1.6 µM
- IC50 [4]: 8 µM
- IC50 [5]: 1 µM
